Results from patent US20180064811A1, “PHARMACEUTICAL COMBINATIONS COMPRISING CD33 ANTIBODIES AND DE-METHYLATING AGENTS” (Boehringer Ingelheim International GmbH, priority 2013, published 2018).

Tested on: HL60 cells
Experiment: ADCC (LDH release) of CD33 antibody CD33-1 with PBMC effector cells pre-treated with de-methylating agents
Format: cell-based, human
Conditions: for Relative Cytolysis (%): ADCC of CD33-1 on HL60 target cells, human PBMC effector cells pre-treated with 100 nM de-methylating agent for 3 to 6 days, E:T 25:1, relative to untreated PBMC (100), 3 independent assays; for impact on ADCC of mAb 33-1: effector cells (PBMC) treated with 100 nM for 3 to 6 days, compared with untreated effector cells
Experimental: The ability CD33 antibodies to mediate antibody-dependent cell-mediated cytotoxicity (ADCC) in the presence of effector cells pre-treated with demethylating agents is assessed using HL60 cells as target cells and human PBMCs as effector cells.
Preparation of target cells (HL-60 acute myeloid leukemia, DSMZ #ACC3)
An aliquot of the cell culture at a cell density between 1.5×10^6/m1 and 1.8×10^6/m1 and growing in the log-phase is centrifuged (200×g, i.e. 1000 rpm) for 10 min. Cells are washed once with washing medium (RPMI 1640 w/o L-glutamine) and pelleted (200×g, i.e. 1000 rpm; 10 min). Cell pellet is suspended in assay medium (1% BSA; AlbuMAX II (Gibco 11021-037)) and cell count is determined. Cell concentration is adjusted to 2×10^5/ml.
Approximately 100 ml whole blood drawn from healthy donors is used for the isolation of PBMC. 10 ml whole blood are diluted 1:3.6 with 26 ml HBSS (Gibco 14170-088; Paisley, Scotland) in a 50 ml tube. 18 ml diluted whole blood is layered on top of 12 ml Lymphoprep (Nycomed Pharma AS 1053980) in a 50 ml tube and centrifuged at 370×g (1400 rpm) for 35 min. The mononuclear cells from the interface are aspirated and washed first with HBSS (750×g, i.e. 1900 rpm; 10 min), then a second time with HBSS (300×g, i.e. 1200 rpm; 10 min) and finally with HBSS (160×g, i.e. 900 rpm; 10 min). The pelleted cells are gently suspended in culture medium/assay medium (10% heat-inactivated human AB serum in RPMI 1640 w/o L-glutamine) using a pipette and the cell count is determined in the cell counter. The PBMC concentration is adjusted to 1×10^7/ml.
The freshly isolated PBMC (5×10^5/m1) are pre-treated with de-methylating agents in culture medium (RPMI 1640 w/o L-glutamine supplemented with 10% human AB serum and decitabine or 5-azacytidine at a final concentration of 100 nM) in a tissue culture flask (75 cm^2) at 37° C. in CO2 incubator for 3 to 6 days. De-methylating agent treated PBMC are separated from cell debris on a Lymphoprep gradient. The purified de-methylating agent treated PBMC are suspended in culture medium/assay medium ata concentration of 1×10^7/ml.
For all tested cell lines an E:T ratio of 25:1 is used. The co-cultivation of effector cells with target cells in presence of test antibody is performed in quadruplicates in 96-well round-bottom microtiter plates (Costar #3799) in a final volume of 200 μl assay medium per well consisting of 10% human AB serum and 1% BSA in RPMI in 1:1 ratio. In each experimental run two plates are assayed in parallel. First effector cells (PBMC cells in 100 μl 10% human AB serum in RPMI per well) are plated, followed by target cells (in 50 μl 1% BSA in RPMI per well) and antibody solution (candidate antibody diluted in 50 μl 1% BSA in RPMI). As a control, effector cells are cultivated in assay medium alone (effector cell control) and target cells are cultivated either in assay medium alone (spontaneous lysis) or in assay medium supplemented with 1% Triton X-100 (maximal lysis). The co-culture is incubated at 37° C. in a humid CO^2 incubator for 3 to 4 hours.
At the end of the incubation cells are removed from the culture medium by centrifugation (200×g, i.e. 1000 rpm; 10 min) at room temperature. Cell free supernatants (100 μl/well) are transferred into corresponding wells of a 96-well flat-bottom plate (Costar #3595). To determine the LDH activity in these supernatants 100 μl reaction mixture (freshly mixed 250 μl catalyst with 11.25 ml dye solution) are added to each well and incubated 30 min at room temperature in the dark. Then the absorbance is measured as described below.
Cytotoxicity Detection Kit (LDH Roche #11 644 793 001) is used to determine ADCC activity. The assay is based on the measurement of LDH enzyme activity released from plasma membrane-damaged cells. LDH released into the culture supernatants reduces the tetrazolium salt from the kit to formazan. […]

SMILES | Relative Cytolysis (%) | Relative Cytolysis (%) (listed as decitabine) | impact on ADCC of mAb 33-1 | Relative Cytolysis (%) (listed as 5-azacytidine)
Nc1ncn([C@H]2C[C@H](O)[C@@H](CO)O2)c(=O)n1 [Decitabine, 4-Amino-1-(2-deoxy-β-D-erythro-pentofuranosyl)-1,3,5-triazin-2(1H)-one] | 98 | 107 | did not significantly impact | 
Nc1ncn([C@@H]2O[C@H](CO)[C@@H](O)[C@H]2O)c(=O)n1 [5-Azacitidine, 4-amino-1-β-D-ribofuranosyl-1,3,5-triazin-2(1H)-one] | 107 |  | did not significantly impact | 98
